Data: patent US10654896B2, “FoxP3-binding peptides and uses thereof” (FUNDACIÓN PARA LA INVESTIGACIÓN MÉDICA APLICADA, priority 2016, dated 2020)
Where a SMILES comes first, the peptide text is derived from it. [ ]: non-standard residue; d: D form.

Tests used:
[1] = biological target: T1, FOXP3/FOXP3 homodimerization (Homo sapiens, UniProt Q9BZS1); experiment: FOXP3/FOXP3 homodimerization inhibition (Alphascreen); format: biochemical
T1 construct: made in house; host or cells: E. coli BL21 (DE3)
T1 sequence (Q9BZS1 1-431): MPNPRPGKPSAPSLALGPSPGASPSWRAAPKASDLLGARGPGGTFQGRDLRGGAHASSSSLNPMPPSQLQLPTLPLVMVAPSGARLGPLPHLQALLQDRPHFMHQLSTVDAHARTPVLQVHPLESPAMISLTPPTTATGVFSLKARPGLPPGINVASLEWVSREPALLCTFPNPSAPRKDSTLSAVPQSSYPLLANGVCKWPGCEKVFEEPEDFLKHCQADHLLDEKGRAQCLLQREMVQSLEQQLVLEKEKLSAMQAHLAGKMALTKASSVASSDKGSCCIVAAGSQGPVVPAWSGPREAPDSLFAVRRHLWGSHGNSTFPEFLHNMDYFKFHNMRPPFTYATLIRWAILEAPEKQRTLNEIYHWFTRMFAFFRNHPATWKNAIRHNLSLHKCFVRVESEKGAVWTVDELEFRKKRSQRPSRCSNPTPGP
From the text: Plasmid pET20b FOXP3-His was generated to produce the human FOXP3 tagged with 6 histidines at the C terminus of the protein. Briefly, plasmid pDEST15-FOXP3 (provided by Dr. Casal, Madrid, Spain) was used as template to amplify FOXP3 by PCR using the primers Upper FOXP3 Ndel catatgcccaaccccaggc (SEQ ID NO: 55) and Lower FOXP3 […] (SEQ ID NO: 56). The resulting fragment was subcloned in pET20b at Ndel and NotI sites. pET45b His-Runx1 was obtained by PCR of activated human CD4 T cells obtained from healthy volunteers (after the signature of an informed consent) using the primers Upper Runx1 atgcgtatccccgtagatg (SEQ ID NO: 57) and Lower Runx1 […] (SEQ ID NO: 58) and the fragment was cloned in pcDNA3.1. Then, pET45b and pcDNA3.1-Runx1 were digested with BamHI and NotI and ligated to obtain pET45b-Runx1. Plasmids were used to transform BL21 cells (DE3; Novagen, Schwalbach, Germany) for the expression of the recombinant protein. The transformed BL21 cells were grown in LB medium at 37° C. (1 liter of final culture medium) (with ampicilin 0.1 mg/ml). Once the OD of the culture was between 0.5 and 1.0, IPTG (0.4 mM, final concentration) was added. Bacteria were then cultured overnight in agitation and centrifuged for 10 min at 8000 rpm. Cell pellet was then resuspended in 4 ml Tris-HCl 0.1 M and frozen at −80° C. Cell pellet was then thawed and incubated with lisozyme (25 KU) and a protease inhibitor cocktail for 15 min at 30° C. before cell lysis induced with a French-press. The resultant pool was then centrifuged during 20 min at 11.000 rpm). The recombinant protein was purified from the soluble fraction of French-press cell extracts by affinity chromatography (Histrap, Pharmacia) following manufacturer's instructions and using an FPLC platform (AKTA, Pharmacia). Plasmid pDEST15-FOXP3 encoding the fusion protein GST-FOXP3 (GST fused to the isoform A from human FOXP3 gene), was transformed into BL21 cells for the expression of the recombinant protein. GST-FOXP3 protein was purified from the soluble fraction of cell extracts obtained, as described above, by affinity chromatography (GSTrap; Amersham, Piscataway, N.J.) using a fast protein liquid chromatography platform (AKTA; Amersham) following manufacturer's instructions. The eluted proteins were desalted using Hitrap desalting columns (Pharmacia) and analyzed by SDS-PAGE using Coomassie blue (Bio-Safe Coomassie reagent; Bio-Rad, Hercules, Calif.) and by Western blot.
It has been described that dimerization of FOXP3 is required for its function as a transcriptional regulator. Moreover, interaction between FOXP3 and the transcription factor Runx1, is crucially required for normal hematopoiesis including thymic T-cell development, but also for Treg suppressor activity (Reviewed in Lozano et al, Front Oncol. 2013, 3:294). Both activities are mediated by the intermediate region of Foxp3, which is the area of interaction between P60 and Foxp3. Thus, we studied the effect of P60 and their mutants on the FOXP3/Runx1 heterodimerization, as well as FOXP3/FOXP3 homodimerization by Alphascreen technology according to the manufacturer's instructions (Perkin Elmer, Benelux). AlphaScreen™ is a bead-based technology that is designed to measure the proximity of donor and acceptor beads conjugated to biomolecules of interest.
To measure FOXP3/FOXP3 homodimerization, recombinant Foxp3 was expressed with a Histine tag as disclosed in section (1) above, and captured by Nickel chelate Acceptor beads (Cat. AL108 Perkin Elmer) following manufacturer's instructions. The other version of recombinant FOXP3, expressing a GST tag (prepared as disclosed in section (1) above), was captured by Glutathione Donor beads (Perkin Elmer Cat. 6765300), following manufacturer's instructions. When the two proteins interacted together, the Donor and Acceptor beads come into proximity. Excitation of the Donor beads results in emission of light from the Acceptor beads. […]

[2] = Human liver microsomal stability; format: in vitro ADME; conditions: human liver microsomes; for remaining at 20 min, 1 μM: read-out: % Remaining after 20 min; for remaining at 1 h, 1 μM: 60 min, read-out: % Remaining after 60 min; for half-life: peptide 1 μM, read-out: t1/2
[3] = Mouse liver microsomal stability; format: in vitro ADME; conditions: mouse liver microsomes; for remaining at 20 min, 1 μM: read-out: % Remaining after 20 min; for remaining at 1 h, 1 μM: 60 min, read-out: % Remaining after 60 min; for half-life: peptide 1 μM

Compound: H-RDFQSFRKMWPFFAM-OH [compound 1]
- inhibition at 100 µM ([1]; read-out: Dimerization inhibition % inhibition (100 μM)): 59.7%

Compound: CSCC[C@H](NC(=O)[C@H](C)NC(=O)[C@H](Cc1ccccc1)NC(=O)[C@H](Cc1ccccc1)NC(=O)[C@@H]1CCCN1C(=O)[C@H](Cc1c[nH]c2ccccc12)NC(=O)[C@H](CCSC)NC(=O)[C@H](CCCCN)NC(=O)[C@H](CCCNC(=N)N)NC(=O)[C@H](Cc1ccccc1)NC(=O)[C@H](CO)NC(=O)[C@H](CCC(N)=O)NC(=O)[C@H](Cc1ccccc1)NC(=O)[C@@H](CC(=O)O)NC(=O)[C@@H](N)CCCNC(=N)N)C(=O)O [compound 3] (H-R[dD]FQSFRKMWPFFAM-OH)
- remaining at 20 min, 1 μM [2]: 0%
- remaining at 1 h, 1 μM [2]: 0%
- half-life [2]: < 2.5 min
- remaining at 20 min, 1 μM [3]: 0%
- remaining at 1 h, 1 μM [3]: 0%
- half-life [3]: < 2.5 min

Compound: CSCC[C@H](NC(=O)[C@H](C)NC(=O)[C@H](Cc1ccccc1)NC(=O)[C@H](Cc1ccccc1)NC(=O)[C@@H]1CCCN1C(=O)[C@H](Cc1c[nH]c2ccccc12)NC(=O)[C@H](CCSC)NC(=O)[C@H](CCCCN)NC(=O)[C@H](CCCNC(=N)N)NC(=O)[C@H](Cc1ccccc1)NC(=O)[C@H](CO)NC(=O)[C@H](CCC(N)=O)NC(=O)[C@H](Cc1ccccc1)NC(=O)[C@H](C)NC(=O)[C@H](N)CCCNC(=N)N)C(=O)O [compound 46] (H-[dR]AFQSFRKMWPFFAM-OH; N-terminus and C-terminus assumed)
- inhibition at 20 µM ([1]; read-out: Dimerization inhibition % inhibition (20 μM)): 90%

Compound: CSCC[C@@H]1NC(=O)[C@H](C)NC(=O)[C@H](Cc2ccccc2)NC(=O)[C@H](Cc2ccccc2)NC(=O)[C@@H]2CCCN2C(=O)[C@H](Cc2c[nH]c3ccccc23)NC(=O)[C@H](CCSC)NC(=O)[C@H](CCCCN)NC(=O)[C@H](CCCNC(=N)N)NC(=O)[C@H](Cc2ccccc2)NC(=O)[C@H](C)NC(=O)[C@H](CCC(N)=O)NC(=O)[C@H](Cc2ccccc2)NC(=O)[C@H](C)NC(=O)[C@H](CCCNC(=N)N)NC1=O [compound 50] (cyclo(RAFQAFRKMWPFFAM))
- remaining at 20 min, 1 μM [2]: 6.2%
- remaining at 1 h, 1 μM [2]: 0%
- half-life [2]: 5.3 min
- remaining at 20 min, 1 μM [3]: 12%
- remaining at 1 h, 1 μM [3]: 0%
- half-life [3]: 8 min
